pIC50: −log10 of the molar value.
System: 521955-158-R2-J5-PDC complex spheroid viability
Assay: Anticancer human tumor 521955-158-R2-J5-PDC patient-derived pancreatic carcinoma cell line growth inhibition
Conditions: for pIC50: curve of first compound; for viability, T/C: stronger effect = lower value
Description: Multicellular complex tumor spheroid response to LSD1 Inhibitor Iadademstat in combination with a variety of drugs and investigational agents in selected tumor cell lines
The current study was undertaken to assess response to LSD1 inhibitors in combination with standard-of-care drugs and investigational agents in solid tumor complex spheroid models as well as in the K-562 leukemia. Complex spheroids include a stromal component modeled by human endothelial cells (HUVEC) and fibroblasts modeled by human mesenchymal stem cells (MSCs). The concentration ranges selected for each drug and investigational agent were based upon clinically achievable concentrations if the clinical Cmax of the agent was known.
Compounds. The drugs and investigational agents used in this study are listed on Table 1. All of the agents used, including staurosporine (NSC755774) and gemcitabine (NSC613327), were obtained from the Developmental Therapeutics Program, NCI. FDA-approved anticancer drugs are available from the NCI at http://dtp.nci.nih.gov/branches/dscb/oncology_drugset_explanation.html. Drugs and investigational agents were >95% pure by proton nuclear magnetic resonance (NMR) and liquid chromatography/mass spectrometry (LC/MS). Stock solutions were prepared at 400x in DMSO, stored at -70 degrees C, and diluted in fresh medium prior to their use. The final concentration of DMSO in cell culture wells never exceeded 0.25% (v/v). The FDA-approved anticancer drug set is available from the Developmental Therapeutics Program at https://dtp.cancer.gov/organization/dscb/obtaining/available_plates.htm. All drugs and investigational agents were tested over a range starting from a high concentration at or near the clinical Cmax and decreasing in half-log increments. If the clinical Cmax for an agent had not been determined, the highest concentration tested was 10 microM.
Cell Lines. The patient-derived cancer cell (PDC) lines: 292921-168-R-J2-PDC, K24384-001-R-PDC, and 521955-158-R2-J5-PDC pancreatic carcinomas, 556581-035-R-J1 ovarian carcinoma, 324938-238-R-J1-PDC, 855422-203-R-J1-PDC and 883617-216-R-J1-PDC urothelial bladder carcinomas, 743489-274-T-PDC renal cell carcinoma, 138582-R-J1 Merkel cell tumor, K60290-347-R-J1 and K57222-313-R-J1-PDC glioblastomas, 653999-131-R-J2-PDC, LG0703-F948-PDC, and 349418-098-R-PDC non-small cell lung carcinomas, 885512-296-R-J2-PDC, 171881-019-R-J1-PDC breast carcinomas and 186277-243-T-J2-PDC and 233499-124-R-J2-PDC colon carcinomas were obtained from the NCI Patient-Derived Models Repository (PDMR, https://pdmr.cancer.gov). The established cell lines NCI/ADR-RES (RRID:CVCL_14520 and OVCAR-5 (RRID:CVCL_1628) ovarian carcinomas, 786-O (RRID:CVCL_1051) and A498 (RRID:CVCL_A498) renal cell carcinoma, NCI-H211 (ATCC, cat. CRL-5824; RRID:CVCL_1529), NCI-H196 (ATCC, cat. CRL-5823, RRID:CVCL_1509), SW 1271 (ATCC, cat. CRL-2177, RRID:CVCL_1716) and NCI-H1876 (ATCC, cat. CRL-5902, RRID:CVCL_1503) small cell lung carcinomas, MDA-MB-231 (RRID:CVCL_0062) and MDA-MB-468 (RRID:CVCL_0419)breast carcinomas (10-12). Pooled donor human umbilical vein endothelial cells (HUVEC, Lonza, cat. CC-2519) and human mesenchymal stem cells (hMSC, Lonza, cat. PT-2501) were purchased from Lonza (Walkersville, MD).
Cell Culture. All cells were maintained in an incubator at 37 degrees C and 5% CO2 with 95% humidity. The PDC lines were cultured according to standard operating procedures established by the NCI PDMR (https://pdmr.cancer.gov). Briefly all PDCs were thawed and cultured in Matrigel-coated flasks prepared with a working solution of 1X Ham's F-12 nutrient mix, without supplementation (Invitrogen, Waltham, MA, cat. 11765054), 100 U/mL penicillin-streptomycin (Invitrogen, cat. 15140122), and 2.5% Matrigel (Corning Inc., Corning, NY, cat. 354248) for the first three passages. […]

[1] = second compound 0.1 µM, first compound 0.000949 µM
[2] = second compound 0.1 µM, first compound 0.003 µM
[3] = second compound 0.1 µM, first compound 0.00949 µM
[4] = second compound 0.1 µM, first compound 0.03 µM
[5] = second compound 0.1 µM, first compound 0.0949 µM
[6] = second compound 0.1 µM, first compound 0.3 µM
[7] = second compound 0.316 µM, first compound 0.000949 µM
[8] = second compound 0.316 µM, first compound 0.003 µM
[9] = second compound 0.316 µM, first compound 0.00949 µM
[10] = second compound 0.316 µM, first compound 0.03 µM
[11] = second compound 0.316 µM, first compound 0.0949 µM
[12] = second compound 0.316 µM, first compound 0.3 µM
[13] = second compound 1 µM, first compound 0.000949 µM
[14] = second compound 1 µM, first compound 0.003 µM
[15] = second compound 1 µM, first compound 0.00949 µM
[16] = second compound 1 µM, first compound 0.03 µM
[17] = second compound 1 µM, first compound 0.0949 µM
[18] = second compound 1 µM, first compound 0.3 µM
[19] = second compound 3.16 µM, first compound 0.000949 µM
[20] = second compound 3.16 µM, first compound 0.003 µM
[21] = second compound 3.16 µM, first compound 0.00949 µM
[22] = second compound 3.16 µM, first compound 0.03 µM
[23] = second compound 3.16 µM, first compound 0.0949 µM
[24] = second compound 3.16 µM, first compound 0.3 µM
[25] = second compound 10 µM, first compound 0.000949 µM
[26] = second compound 10 µM, first compound 0.003 µM
[27] = second compound 10 µM, first compound 0.00949 µM
[28] = second compound 10 µM, first compound 0.03 µM
[29] = second compound 10 µM, first compound 0.0949 µM
[30] = second compound 10 µM, first compound 0.3 µM
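Further: spheroids exposed to agents for seven days.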
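Wherever viability, T/C is given: percent of DMSO vehicle control luminescence viability.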

For `CCc1c2c(nc3ccc(O)cc13)-c1cc3c(c(=O)n1C2)COC(=O)[C@]3(O)CC` + NC1CC1c1ccc(-c2cccc(O)c2)cc1, the pIC50 (second compound 0.1 µM) was over 9.02, the pIC50 (second compound 0.316 µM) was over 9.02 and the pIC50 (second compound 1 µM) was over 9.02. For the same molecule, the pIC50 (second compound 3.16 µM) was over 9.02, the pIC50 (second compound 10 µM) was over 9.02 and the viability, T/C [1] was 10.3%. The viability, T/C [2] was 8.53%, the viability, T/C [3] was 1.37% and the viability, T/C [4] was 0.77%. It also gave a viability, T/C [5] of 0.88%, a viability, T/C [6] of 1.18% and a viability, T/C [7] of 14%. It also gave a viability, T/C [8] of 8.17%, a viability, T/C [9] of 1.18% and a viability, T/C [10] of 0.73%. It also gave a viability, T/C [11] of 0.87%, a viability, T/C [12] of 1.5% and a viability, T/C [13] of 11.7%. The viability, T/C [14] was 9.8%, the viability, T/C [15] was 1.34% and the viability, T/C [16] was 1.1%. For the same molecule, the viability, T/C [17] was 0.66%, the viability, T/C [18] was 1.78% and the viability, T/C [19] was 13.4%. The viability, T/C [20] was 8.84%, the viability, T/C [21] was 1.07% and the viability, T/C [22] was 0.72%. For the same molecule, the viability, T/C [23] was 0.84%, the viability, T/C [24] was 2.14% and the viability, T/C [25] was 17.5%. The viability, T/C [26] was 13%, the viability, T/C [27] was 1.18% and the viability, T/C [28] was 0.43%. The viability, T/C [29] was 0.52% and the viability, T/C [30] was 0.74%.

In the case of `Nc1ccn(C2OC(CO)C(O)C2(F)F)c(=O)n1` (stereo not given) + NC1CC1c1ccc(-c2cccc(O)c2)cc1, the pIC50 (second compound 0.1 µM) was 7.18, the pIC50 (second compound 0.316 µM) was 7.15 and the pIC50 (second compound 1 µM) was 7.16. The pIC50 (second compound 3.16 µM) was 7.24, the pIC50 (second compound 10 µM) was 7.44 and the viability, T/C [1] was 86.9%. For the same molecule, the viability, T/C [2] was 86.4%, the viability, T/C [3] was 84% and the viability, T/C [4] was 66.8%. For the same molecule, the viability, T/C [5] was 42.8%, the viability, T/C [6] was 23.4% and the viability, T/C [7] was 83.2%. The viability, T/C [8] was 89.1%, the viability, T/C [9] was 79.1% and the viability, T/C [10] was 66%. The viability, T/C [11] was 44.9%, the viability, T/C [12] was 24.9% and the viability, T/C [13] was 90.8%. The viability, T/C [14] was 84%, the viability, T/C [15] was 87.3% and the viability, T/C [16] was 63.3%. It also gave a viability, T/C [17] of 45.8%, a viability, T/C [18] of 26.5% and a viability, T/C [19] of 90.1%. For the same molecule, the viability, T/C [20] was 94.8%, the viability, T/C [21] was 92% and the viability, T/C [22] was 67.7%. For the same molecule, the viability, T/C [23] was 36.3%, the viability, T/C [24] was 27.5% and the viability, T/C [25] was 97.4%. It also gave a viability, T/C [26] of 87.9%, a viability, T/C [27] of 80.3% and a viability, T/C [28] of 52.5%. For the same molecule, the viability, T/C [29] was 36% and the viability, T/C [30] was 33.9%.

Molecule `O=C(c1cc(Cc2n[nH]c(=O)c3ccccc23)ccc1F)N1CCN(C(=O)C2CC2)CC1` + NC1CC1c1ccc(-c2cccc(O)c2)cc1 has a pIC50 (second compound 0.1 µM) of under 5.00, a pIC50 (second compound 0.316 µM) of under 5.00 and a pIC50 (second compound 1 µM) of under 5.00. The pIC50 (second compound 3.16 µM) was under 5.00, the pIC50 (second compound 10 µM) was under 5.00 and the viability, T/C (second compound 0.1 µM, first compound 0.0316 µM) was 80.9%. For the same molecule, the viability, T/C (second compound 0.1 µM, first compound 0.1 µM) was 87.5%, the viability, T/C (second compound 0.1 µM, first compound 0.316 µM) was 88.4% and the viability, T/C (second compound 0.1 µM, first compound 1 µM) was 87.4%. The viability, T/C (second compound 0.1 µM, first compound 3.16 µM) was 81.5%, the viability, T/C (second compound 0.1 µM, first compound 10 µM) was 69.1% and the viability, T/C (second compound 0.316 µM, first compound 0.0316 µM) was 90.5%. For the same molecule, the viability, T/C (second compound 0.316 µM, first compound 0.1 µM) was 82.3%, the viability, T/C (second compound 0.316 µM, first compound 0.316 µM) was 89.1% and the viability, T/C (second compound 0.316 µM, first compound 1 µM) was 74.7%. It also gave a viability, T/C (second compound 0.316 µM, first compound 3.16 µM) of 74.6%, a viability, T/C (second compound 0.316 µM, first compound 10 µM) of 66.2% and a viability, T/C (second compound 1 µM, first compound 0.0316 µM) of 77.9%. The viability, T/C (second compound 1 µM, first compound 0.1 µM) was 79.7%, the viability, T/C (second compound 1 µM, first compound 0.316 µM) was 79.7% and the viability, T/C (second compound 1 µM, first compound 1 µM) was 77.1%. It also gave a viability, T/C (second compound 1 µM, first compound 3.16 µM) of 67%, a viability, T/C (second compound 1 µM, first compound 10 µM) of 59.5% and a viability, T/C (second compound 3.16 µM, first compound 0.0316 µM) of 81.8%. For the same molecule, the viability, T/C (second compound 3.16 µM, first compound 0.1 µM) was 82.2%, the viability, T/C (second compound 3.16 µM, first compound 0.316 µM) was 83.3% and the viability, T/C (second compound 3.16 µM, first compound 1 µM) was 75.6%. The viability, T/C (second compound 3.16 µM, first compound 3.16 µM) was 69.1%, the viability, T/C (second compound 3.16 µM, first compound 10 µM) was 55.8% and the viability, T/C (second compound 10 µM, first compound 0.0316 µM) was 87.7%. For the same molecule, the viability, T/C (second compound 10 µM, first compound 0.1 µM) was 84.9%, the viability, T/C (second compound 10 µM, first compound 0.316 µM) was 83.4% and the viability, T/C (second compound 10 µM, first compound 1 µM) was 78.4%. The viability, T/C (second compound 10 µM, first compound 3.16 µM) was 68.1% and the viability, T/C (second compound 10 µM, first compound 10 µM) was 55.7%.

Source: PubChem BioAssay AID1918937 (Molecular Pharmacology Branch, DTP, NCI, 2023)
